In US4438120A, “Pyridoindolobenzodiazepine tranquilizers” (E. I. Du Pont de Nemours & Company, priority 1982, dated 1984):

Tested on: Conditioned Avoidance Response (CAR)
Assay: Conditioned Avoidance Response (CAR) test in mice, oral
Type: in vivo, mouse (female white mice)
Conditions: female white mice, moving average method
Protocol: The paradigm used for predicting tranquilizer activity was a Conditioned Avoidance Response (CAR) test in mice. Female white mice, 19-23 g, were used. The apparatus modified from Bovet, D. et al., Science, 163, 139-149 (1969), was a one-way shuttlebox with 0.4 mA scrambled electric footshock as unconditioned stimulus (US) and a 6 watt white light plus a relay buzzer as conditioned stimuli (CS). Mice were conditioned by three sets of 1-5 trials on day 1, then were fasted for 17-21 hours. The conditioned mice were tested for retention of the conditioned response on day 2, and then were dosed orally with test drug at doses such as 0, 1, 3, 9, 27 and 81 mg/kg. ED50 values (doses at which 50% of the animals would be expected to show response failure) were calculated by the moving average method [Thompson, W. R., Bact. Rev., 11, 115 (1947)].

Compound | Mouse CAR ED50 (avoidance ED50, dose at which 50% of the animals would be expected to show response failure) [mg/kg]
O=C1Nc2cc(C(F)(F)F)cc3c4c(n(c23)-c2ccc(Cl)cc21)CCNC4 [Example 21] | > 81
Clc1cc2c3c(c1)c1c(n3-c3ccccc3CN2)CCNC1 [Example 59, 6-Chloro-1,2,3,4,8,9-hexahydropyrido[4',3':2,3]indolo[1,7-ab][1,4]benzodiazepine] | 9.0
Cc1ccc2c(c1)C(=O)Nc1ccc(Cl)c3c4c(n-2c13)CCNC4 [Example 9] | > 81
CN1CCc2c(c3cccc4c3n2-c2ccc(Cl)cc2C(=O)N4)C1 [Example 12] | 12
Cc1ccc2c(c1)C(=O)Nc1cc(Cl)cc3c4c(n-2c13)CCNC4 [Example 20] | > 81
FC(F)(F)c1cc2c3c(c1)[C@@H]1CN(CC4CC4)CC[C@H]1N3c1ccccc1CN2 (relative stereo) [Example 110] | 15.6
CN1CC[C@@H]2[C@@H](C1)c1cc(Cl)cc3c1N2c1ccc(Cl)cc1CN3 (relative stereo) [Example 100] | 2.1
CCN1CC[C@@H]2[C@@H](C1)c1cccc3c1N2c1ccccc1CN3C (relative stereo) [Example 104] | 41
5-Chloro-1,2,3,4-tetrahydro-3-(3-oxobutyl)pyrido[4',3':2,3]indolo[1,7-ab][1,4]benzodiazepin-8(9H)-one [Example 52] | 39
CCN1CC[C@@H]2[C@@H](C1)c1c(Cl)ccc3c1N2c1ccccc1CN3 (relative stereo) [Example 102] | 5.8
CN1CC[C@@H]2[C@@H](C1)c1cccc3c1N2c1ccccc1CN3 (relative stereo) [Example 97] | 9.0
Cl.O=C(O)CCCN1CCc2c(c3cc(Cl)cc4c3n2-c2ccccc2C(=O)N4)C1 [Example 51, 6-Chloro-1,2,8,9-tetrahydro-9-oxopyrido[4',3':2,3]indolo[1,7-ab][1,4]benzodiazepin-3(4H)-butanoic acid hydrochloride] | 56.2
O=C1Nc2cc(Cl)cc3c4c(n(c23)-c2ccccc21)CCNC4 [Example 4] | 29
CCCCCCN1CCc2c(c3cc(Cl)cc4c3n2-c2ccc(C)cc2C(=O)N4)C1 [Example 42] | 162
c1ccc2c(c1)CNc1cccc3c1N2[C@@H]1CCN(CC2CCCCC2)C[C@@H]31 (relative stereo) [Example 111] | 3.3
CC(C)N1CCc2c(c3cccc4c3n2-c2ccccc2C(=O)N4)C1 [Example 31, 1,2,3,4-Tetrahydro-3-(2-propyl)pyrido[4',3':2,3]indolo[1,7-ab][1,4]benzodiazepin-9(8H)-one] | 23
Cc1ccc2c(c1)CNc1cc(Cl)cc3c1N2[C@@H]1CCN(CCc2ccccc2)C[C@@H]31 (relative stereo) [Example 113] | 3.5
CN1Cc2ccccc2-n2c3c(c4cc(C(F)(F)F)cc1c42)CNCC3 [Example 62] | > 81
CCN1CC[C@@H]2[C@@H](C1)c1cc(Cl)cc3c1N2c1ccccc1CN3.Cl.Cl (relative stereo) [Example 96, trans-6-Chloro-3-ethyl-1,2,3,4,4a,8,9,14a-octahydropyrido[4',3':2,3]indolo[1,7-ab][1,4]benzodiazepine, Dihydrochloride] | 0.3
Cc1ccc2c(c1)C(=O)Nc1cc(Cl)cc3c4c(n-2c13)CCN(C)C4 [Example 13] | 10.5
CCCCCCN1CCc2c(c3c(Cl)ccc4c3n2-c2ccc(C)cc2C(=O)N4)C1 [Example 41] | > 81
CCCCCCN1CCc2c(c3cccc4c3n2-c2ccccc2C(=O)N4)C1 [Example 35] | 56.2
CCN1CC[C@@H]2[C@@H](C1)c1cc(C(F)(F)F)cc3c1N2c1ccccc1CN3C (relative stereo) [Example 107] | 10.1
CN1CCc2c(c3cc(Cl)cc4c3n2-c2ccccc2C(=O)N4)C1 [Example 11] | 67
O=C1Nc2cccc3c4c(n(c23)-c2cc(Cl)ccc21)CCNC4 [Example 8] | > 54
Cc1ccc2c(c1)CNc1cc(Cl)cc3c1N2[C@@H]1CCN(C)C[C@@H]31 (relative stereo) [Example 101] | 0.69

Compound | Mouse CAR ED50 (avoidance ED50, dose at which 50% of the animals would be expected to show response failure) [mg/kg]
CCCN1CCc2c(c3cc(Cl)cc4c3n2-c2ccccc2C(=O)N4)C1 [Example 34] | 13.6
CN1CCc2c(c3c(Cl)ccc4c3n2-c2ccccc2C(=O)N4)C1 [Example 10] | 19.7
CCCCCCN1CCc2c(c3cc(Cl)cc4c3n2-c2ccccc2C(=O)N4)C1 [Example 37] | 11.8
CCN1CC[C@@H]2[C@@H](C1)c1cc(Cl)cc3c1N2c1ccccc1CN3C (relative stereo) [Example 106] | 5.8
CCCCCCN1CC[C@@H]2[C@@H](C1)c1cc(Cl)cc3c1N2c1ccc(C)cc1CN3 (relative stereo) [Example 108] | 2.5
Cc1ccc2c(c1)C(=O)Nc1cccc3c4c(n-2c13)CCNC4 [Example 6] | 24
Cc1ccc2c(c1)C(=O)Nc1cc(Cl)cc3c4c(n-2c13)CCN(CCc1ccccc1)C4 [Example 16] | 47
O=C(CCCN1CCc2c(c3cc(Cl)cc4c3n2-c2ccccc2C(=O)N4)C1)c1ccc(F)cc1 [Example 40] | 47
CN1CC[C@@H]2[C@@H](C1)c1cccc3c1N2c1ccc(Cl)cc1CN3 (relative stereo) [Example 99] | 1.4
Cc1ccc2c(c1)C(=O)Nc1ccc(Cl)c3c4c(n-2c13)CCN(C)C4 [Example 19] | > 81
Clc1ccc2c(c1)CNc1cccc3c4c(n-2c13)CCN(CCc1ccccc1)C4 [Example 69] | 27
CN1CCc2c(c3cc(C(F)(F)F)cc4c3n2-c2ccc(Cl)cc2C(=O)N4)C1 [Example 17] | 37
CN1CCc2c(c3cc(C(F)(F)F)cc4c3n2-c2ccccc2C(=O)N4)C1 [Example 18] | > 81
O=C1Nc2cccc3c4c(n(c23)-c2ccccc21)CCNC4 [Example 2, 1,2,3,4-tetrahydropyrido[4',3':2,3]indolo[1,7-ab][1,4]benzodiazepin-9(8H)-one] | 39
CCN1CC[C@@H]2[C@@H](C1)c1cc(C(F)(F)F)cc3c1N2c1ccccc1CN3 (relative stereo) [Example 103] | 1.2
Clc1ccc2c(c1)CNc1cccc3c4c(n-2c13)CCNC4 [Example 61] | 34
CCCCCCN1CCc2c(c3c(Cl)ccc4c3n2-c2ccccc2C(=O)N4)C1 [Example 36] | 52
Clc1cc2c3c(c1)c1c(n3-c3ccccc3CN2)CCN(CC2CCCCC2)C1 [Example 68, 6-Chloro-3-cyclohexylmethyl-1,2,3,4,8,9-hexahydropyrido[4',3':2,3]indolo[1,7-ab][1,4]benzodiazepine] | 7.1
CCCCCCN1CCc2c(c3cccc4c3n2-c2ccc(Cl)cc2C(=O)N4)C1 [Example 43] | > 81
CN1Cc2ccccc2N2c3c(cccc31)[C@@H]1CN(Cc3ccccc3)CC[C@H]12 (relative stereo) [Example 112] | 6.8
O=C1Nc2ccc(Cl)c3c4c(n(c23)-c2ccccc21)CCNC4 [Example 3] | 45
CCCCCCCCCCN1CCc2c(c3cc(Cl)cc4c3n2-c2ccccc2C(=O)N4)C1 [Example 44] | > 162
O=C1Nc2cc(C(F)(F)F)cc3c4c(n(c23)-c2ccccc21)CCNC4 [Example 5] | 81
CCCN1CCc2c(c3c(Cl)ccc4c3n2-c2ccccc2C(=O)N4)C1 [Example 33] | 21.7
CCN1CC[C@@H]2[C@@H](C1)c1cccc3c1N2c1ccc(Cl)cc1CN3 (relative stereo) [Example 105] | 24
Clc1ccc2c(c1)CNc1cccc3c1N2[C@@H]1CCN(CC2CC2)C[C@@H]31 (relative stereo) [Example 109] | 2.1
